Experimental data reported in patent US20220073541A1, “SILICON ION COMPLEX ORGANIZED WITH CARBOXYLIC ACID, METHOD FOR MANUFACTURING COMPLEX, AND PRODUCT USING SAME” (KOREA NEW TECHNOLOGY CO.,LTD., priority 2019, published 2022).

Assay: Metasilicate dissolution experiment (gastric acid conditions, pH 1.5)
Type: physicochemical
Procedure: A dissolution experiment was performed using sodium metasilicate nonahydrate (Na2SiO3.9H2O).
(2) The pH of the solution was lowered to pH 1.5 using 37% hydrochloric acid and measured again.
(1) 150 ml of water was added in a 250 ml beaker, adjusted in pH to a value of 1.5 with 37% hydrochloric acid to meet the standards for gastric acid of the human body, and combined with another water to a volume of 250 ml.
(2) 1 g of metasilicate nonahydrate (Na2SiO3.9H2O) was added to the solution of step (1).

pH of solution in pure water (1 g in 500 ml pure water)	behaviour of dissolved silicate after lowering pH (1 g in 500 ml pure water, pH lowered to 1.5 using 37% hydrochloric acid)	dissolution of silicate added to acidic water (1 g added to 250 ml water at pH 1.5 (37% hydrochloric acid))	SMILES
12.23	gelled while agglomerating	–	O.O.O.O.O.O.O.O.O.O=[Si]([O-])[O-].[Na+].[Na+] [Comparative Example 1, sodium metasilicate nonahydrate (Na2SiO3.9H2O)]
–	–	precipitated rather than dissolved	O.O.O.O.O.O.O.O.O.O=[Si]([O-])[O-].[Na+].[Na+] [Comparative Example 2, metasilicate nonahydrate (Na2SiO3.9H2O)]
